Experiment [1] relates to High Fat Diet C57 Mice. Description: LDL-C lowering activity in high fat diet C57 mice. In kind it is in vivo. To be noted: C57 mice on high fat diet, dose 30 mg, orally once a day, day 28 of treatment. On the procedure: The in-vivo LDL-c lowering for test compound was tested in C57 mice which were kept on high fat diet for 4 weeks and the blood was collected by retro-orbital sinus puncture method under light ether anesthesia on day 0 (pretreatment). Animal are grouped based on LDL-C levels, after that 4-6 week treatment with vehicle or test compound orally at a dose of 30 mpk dose once a day was given. On completion of treatment on day 28 of the treatment the blood was collected for LDL-C levels measurement. The percent change in LDL-C in test compound group Vs Vehicle group was calculated.

For experiment [2], the target named is pro-protein convertase of the subtype nine binding to recombinant LDLR-AB domain (Homo sapiens, UniProt Q8NBP7). Description: in vitro quantitative solid phase binding assay (ELISA) of the subtype nine pro-protein convertase to immobilized LDLR. To be noted: for inhibition at 1 µM: Concentration 1 μM; for inhibition at 10 µM: Concentration 10 μM; for inhibition at 100 µM: Concentration 100 μM; for inhibition at 5 µM: Concentration 5 μM. The procedure: The in vitro binding assay described hereinafter is a quantitative solid phase binding assay for determining the efficacy of the compounds. Plates were pre-coated with a recombinant LDLR-AB domain, which binds to the gene pro-protein convertase of the subtype nine. Test compound at different concentrations was added to the subtype gene and added to LDLR immobilized on the wells. The amount of bound gene is measured by binding it with biotinylated anti-His-tag monoclonal antibody, followed by binding with horseradish peroxidase conjugated streptavidin substrate. The color was quantified by ELISA reader at […] which reflects the relative amount of “the gene” that binds to LDLR in presence and absence of the inhibitor. EC50 values were calculated by nonlinear regression analysis using graph pad prism software. Each concentration point represents values in duplicates.
For orientation: ELISA stands for enzyme-linked immunosorbent assay.

The text below walks through data of patent US8822414B2, “Heterocyclic compounds suitable for the treatment of dyslipidemia” (Cadila Healthcare Limited, priority 2010, dated 2014).

Sequence of pro-protein convertase of the subtype nine binding to recombinant LDLR-AB domain (Q8NBP7 153-692): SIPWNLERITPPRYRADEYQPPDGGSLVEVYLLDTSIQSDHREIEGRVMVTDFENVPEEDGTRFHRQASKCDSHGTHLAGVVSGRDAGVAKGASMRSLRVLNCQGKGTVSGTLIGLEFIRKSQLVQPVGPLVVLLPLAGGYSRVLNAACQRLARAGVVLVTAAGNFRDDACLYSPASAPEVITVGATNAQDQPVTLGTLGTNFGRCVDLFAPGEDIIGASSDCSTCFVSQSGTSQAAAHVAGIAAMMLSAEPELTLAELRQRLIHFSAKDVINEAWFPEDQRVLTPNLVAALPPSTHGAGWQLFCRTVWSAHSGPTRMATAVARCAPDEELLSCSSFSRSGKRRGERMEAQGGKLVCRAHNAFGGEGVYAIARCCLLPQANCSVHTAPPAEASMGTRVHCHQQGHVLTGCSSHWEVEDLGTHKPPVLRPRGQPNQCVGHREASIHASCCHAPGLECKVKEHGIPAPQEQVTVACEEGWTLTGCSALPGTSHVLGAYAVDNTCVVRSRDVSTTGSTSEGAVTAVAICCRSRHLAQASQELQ
Sequence of pro-protein convertase of the subtype nine binding to recombinant LDLR-AB domain (Q8NBP7 31-152 partner limits assumed): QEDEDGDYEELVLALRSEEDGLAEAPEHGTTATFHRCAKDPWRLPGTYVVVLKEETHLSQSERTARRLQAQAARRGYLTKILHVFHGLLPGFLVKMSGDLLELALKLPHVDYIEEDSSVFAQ

As usually defined, the inhibition is the share of the control response that was lost under treatment. Turning to `CCC(=NOCc1ccc(C(F)(F)F)cc1)c1ccc(OCC(=O)NCC2CCOCC2)nc1` [Example 22, N-((tetrahydro-2H-pyran-4-yl)methyl)-2-((5-(1-(((4-(trifluoromethyl)benzyl)oxy)imino)propyl)pyridin-2-yl)oxy)acetamide], in experiment [1], the “% Change Vs Vehicle Control LDL-C” value is reported as −64.6 ± 4.1% and the “% Change Vs Vehicle Control TC” value was −21.5 ± 2.8%. In addition, in experiment [2], the inhibition at 1 µM came to 29%, the inhibition at 10 µM amounted to 46% and the inhibition at 100 µM is 46%.

With `O=C(COc1ccc(C(CO)=NOCc2ccc(C(F)(F)F)cc2)cc1)NCC1CCOCC1` [Example 31, 2-(4-(2-hydroxy-1-(((4-(trifluoromethyl)benzyl)oxy)imino)ethyl)phenoxy)-N-((tetrahydro-2H-pyran-4-yl)methyl)acetamide], in experiment [1], the “% Change Vs Vehicle Control LDL-C” value is listed as −30.6 ± 3.6% and the “% Change Vs Vehicle Control TC” value is −3.5 ± 3.4%. Besides, in experiment [2], the inhibition at 1 µM was found to be 15%, the inhibition at 10 µM is 20% and the inhibition at 100 µM worked out at 29%.

For the compound `CC(=NOCc1ccc(C(F)(F)F)cc1)c1ccc(OCC(=O)NCC2CCOCC2)cc1` [Example 18, N-((tetrahydro-2H-pyran-4-yl)methyl)-2-(4-(1-(((4-(trifluoromethyl)benzyl)oxy)imino)ethyl)phenoxy)acetamide], in experiment [1], the “% Change Vs Vehicle Control LDL-C” value is on record as −75.2 ± 3.5% and the “% Change Vs Vehicle Control TC” value is recorded as −41.6 ± 1.9%. In experiment [2], the inhibition at 1 µM is 16%, the inhibition at 10 µM was 38% and the inhibition at 100 µM is 63%.

For `CCC(=NOCc1ccc(C(F)(F)F)cc1)c1ccc(OCC(=O)NCC2CCOCC2)cc1` [Example 1, N-((tetrahydro-2H-pyran-4-yl)methyl)-2-(4-(1-(((4-(trifluoromethyl)benzyl)oxy)imino)propyl)phenoxy)acetamide], in experiment [1], the “% Change Vs Vehicle Control LDL-C” value is given as −48.8 ± 4.2% and the “% Change Vs Vehicle Control TC” value is reported as −11.8 ± 2.7%. In experiment [2], the inhibition at 1 µM came to 29%, the inhibition at 10 µM came out at 35% and the inhibition at 100 µM came out at 57%.

Consider `COc1ccc(CON=C(Cc2ccccc2)c2ccc(OCC(=O)NCC3CCOCC3)cc2)cc1` [Example 41, 2-(4-(1-(((4-methoxybenzyl)oxy)imino)-2-phenylethyl)phenoxy)-N-((tetrahydro-2H-pyran-4-yl)methyl)acetamide], for which, in experiment [2], the inhibition at 1 µM came out at 10% and the inhibition at 100 µM worked out at 19%.

For the compound `Cc1ccc(CON=C(Cc2ccccc2)c2ccc(OCC(=O)NCC3CCOCC3)c(C)c2)cc1` [Example 32, 2-(2-methyl-4-(1-(((4-methylbenzyl)oxy)imino)-2-phenylethyl)phenoxy)-N-((tetrahydro-2H-pyran-4-yl)methyl)acetamide], in experiment [2], the inhibition at 1 µM was 14%, the inhibition at 10 µM is 35% and the inhibition at 100 µM is 48%.

As for `O=C(COc1ccc(C(Cc2ccccc2)=NOCc2ccc(Cl)cc2)cc1)NCC1CCOCC1` [Example 37, 2-(4-(1-(((4-chlorobenzyl)oxy)imino)-2-phenylethyl)phenoxy)-N-((tetrahydro-2H-pyran-4-yl)methyl)acetamide], in experiment [2], the inhibition at 1 µM turned out to be 20%, the inhibition at 10 µM came out at 26% and the inhibition at 100 µM amounted to 28%.

For the compound `O=C(COc1ccc(C(Cc2ccccc2)=NOCc2ccc(OC(F)(F)F)cc2)cc1)NCC1CCOCC1` [Example 39, 2-(4-(2-phenyl-1-(((4-(trifluoromethoxy)benzyl)oxy)imino)ethyl)phenoxy)-N-((tetrahydro-2H-pyran-4-yl)methyl)acetamide], in experiment [2], the inhibition at 10 µM is 33% and the inhibition at 100 µM stood at 42%.

With `CCC(=NOCc1ccccc1)c1ccc(OCC(=O)NCC2CCOCC2)nc1` [Example 24, 2-((5-(1-((benzyloxy)imino)propyl)pyridin-2-yl)oxy)-N-((tetrahydro-2H-pyran-4-yl)methyl)acetamide], in experiment [2], the inhibition at 1 µM was found to be 24%, the inhibition at 10 µM was determined as 28% and the inhibition at 100 µM turned out to be 52%.

Take `O=C(COc1ccc(C=NOCc2ccc(C(F)(F)F)cc2)cc1)NCC1CCOCC1` [Example 17, N-((tetrahydro-2H-pyran-4-yl)methyl)-2-(4-((((4-(trifluoromethyl)benzyl)oxy)imino)methyl)phenoxy)acetamide]: in experiment [2], the inhibition at 1 µM amounted to 13%, the inhibition at 10 µM is 19% and the inhibition at 100 µM is 44%.

As to `O=C(COc1ccc(C(Cc2ccccc2)=NOCc2ccccn2)cc1)NCC1CCOCC1` [Example 43, 2-(4-(2-phenyl-1-((pyridin-2-ylmethoxy)imino)ethyl)phenoxy)-N-((tetrahydro-2H-pyran-4-yl)methyl)acetamide], in experiment [2], the inhibition at 10 µM is 15% and the inhibition at 100 µM was determined as 27%.

Turning to `O=C(COc1ccc(C(Cc2ccccc2)=NOCc2cccc(C(F)(F)F)c2)cc1)NCC1CCOCC1` [Example 12, 2-(4-(2-phenyl-1-(((3-(trifluoromethyl)benzyl)oxy)imino)ethyl)phenoxy)-N-((tetrahydro-2H-pyran-4-yl)methyl)acetamide], in experiment [2], the inhibition at 1 µM is 19%, the inhibition at 10 µM was found to be 55% and the inhibition at 100 µM came to 79%.

Consider `Cc1cc(C(Cc2ccsc2)=NOCc2ccc(C(F)(F)F)cc2)ccc1OCC(=O)NCC1CCOCC1` [Example 16, 2-(2-methyl-4-(2-(thiophen-3-yl)-1-(((4-(trifluoromethyl)benzyl)oxy)imino)ethyl)phenoxy)-N-((tetrahydro-2H-pyran-4-yl)methyl)acetamide], for which, in experiment [2], the inhibition at 1 µM is 10%, the inhibition at 5 µM came out at 21%, the inhibition at 10 µM came out at 35% and the inhibition at 100 µM was determined as 61%.

For `CCC(=NOCc1ccc(OC)cc1)c1ccc(OCC(=O)NCC2CCOCC2)nc1` [Example 26, 2-((5-(1-(((4-methoxybenzyl)oxy)imino)propyl)pyridin-2-yl)oxy)-N-((tetrahydro-2H-pyran-4-yl)methyl)acetamide], in experiment [2], the inhibition at 1 µM amounted to 45%, the inhibition at 10 µM came out at 45% and the inhibition at 100 µM is 52%.

Turning to `COc1ccc(CON=C(Cc2ccccc2)c2ccc(OCC(=O)NCC3CCOCC3)c(C)c2)cc1` [Example 40, 2-(4-(1-(((4-methoxybenzyl)oxy)imino)-2-phenylethyl)-2-methylphenoxy)-N-((tetrahydro-2H-pyran-4-yl)methyl)acetamide], in experiment [2], the inhibition at 10 µM is 20% and the inhibition at 100 µM amounted to 47%.

Consider `Cc1cc(C(Cc2ccccc2)=NOCc2ccc(OC(F)(F)F)cc2)ccc1OCC(=O)NCC1CCOCC1` [Example 38, 2-(2-methyl-4-(2-phenyl-1-(((4-(trifluoromethoxy)benzyl)oxy)imino)ethyl)phenoxy)-N-((tetrahydro-2H-pyran-4-yl)methyl)acetamide], for which, in experiment [2], the inhibition at 10 µM is 19% and the inhibition at 100 µM is 38%.

For the compound `Cc1cc(C(Cc2ccccc2)=NOCc2ccc(C(F)(F)F)cc2)ccc1OCC(=O)NCC1CCOCC1` [Example 10, 2-(2-methyl-4-(2-phenyl-1-(((4-(trifluoromethyl)benzyl)oxy)imino)ethyl)phenoxy)-N-((tetrahydro-2H-pyran-4-yl)methyl)acetamide], in experiment [2], the inhibition at 1 µM came out at 3%, the inhibition at 5 µM was determined as 18%, the inhibition at 10 µM stood at 35% and the inhibition at 100 µM was found to be 51%.

Take `O=C(COc1ccc(C(Cc2ccncc2)=NOCc2ccc(C(F)(F)F)cc2)cc1)NCC1CCOCC1` [Example 13, 2-(4-(2-(pyridin-4-yl)-1-(((4-(trifluoromethyl)benzyl)oxy)imino)ethyl)phenoxy)-N-((tetrahydro-2H-pyran-4-yl)methyl)acetamide]: in experiment [2], the inhibition at 1 µM stood at 22%, the inhibition at 10 µM amounted to 32% and the inhibition at 100 µM stood at 48%.

As to `O=C(COc1ccc(C(CN2CCSCC2)=NOCc2ccc(C(F)(F)F)cc2)cc1)NCC1CCOCC1` [Example 15, N-((tetrahydro-2H-pyran-4-yl)methyl)-2-(4-(2-thiomorpholino-1-(((4-(trifluoromethyl)benzyl)oxy)imino)ethyl)phenoxy)acetamide], in experiment [2], the inhibition at 1 µM is 25%, the inhibition at 10 µM was 37% and the inhibition at 100 µM is 39%.

Consider `CC(=NOCc1ccc(C(F)(F)F)cc1)c1ccc(OCC(=O)NCC2CCOCC2)nc1` [Example 3, N-((tetrahydro-2H-pyran-4-yl)methyl)-2-((5-(1-(((4-(trifluoromethyl)benzyl)oxy)imino)ethyl)pyridin-2-yl)oxy)acetamide], for which, in experiment [1], the “% Change Vs Vehicle Control LDL-C” value was −74.6 ± 2.0% and the “% Change Vs Vehicle Control TC” value is listed as −33.6 ± 2.0%. In addition, in experiment [2], the inhibition at 1 µM is 28%, the inhibition at 10 µM was determined as 41% and the inhibition at 100 µM worked out at 54%.
